Results: PubChem BioAssay (NCI)
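Tested at 5 concentrations; 48 h exposure; 96-well plates; endpoints linearly interpolated, else capped at highest concentration. At the TGI there is no net growth.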

Legend:
Assay in all cases: DTP human tumour cell line panel, 48 h
DLD-1 colon = system: DLD-1 colon
KM20L2 colon = system: KM20L2 colon
HOP-18 NSCLC = system: HOP-18 NSCLC
RXF-631 renal = system: RXF-631 renal
SNB-78 CNS = system: SNB-78 CNS
XF 498 CNS = system: XF 498 CNS

SMILES	TGI (DLD-1 colon)	TGI (KM20L2 colon)	TGI (HOP-18 NSCLC)	TGI (RXF-631 renal)	TGI (SNB-78 CNS)	TGI (XF 498 CNS)
Cc1cc(C=O)c2c(=O)c3c(O)ccc(/C=C/C(C)C)c3oc2c1	> 100 µM	> 100 µM				
COC(=O)N/N=c1\cc(C(=O)Nc2ccc(C)c(C)c2)oc2cc(O)ccc12	> 100 µM	> 100 µM	> 100 µM	> 100 µM	> 100 µM	> 100 µM
CCOc1ccc(OP2(=O)NC(=O)C=C(C)N2)cc1 (configuration not stated)	> 100 µM	> 100 µM	> 100 µM	> 100 µM	> 100 µM	> 100 µM
CCN(CC)c1ccc(Cl)c2c1C(O)(C(C)C)C2(C)C (configuration not stated)	31.4 µM	27.8 µM	27.3 µM		69.4 µM	
CC(=O)Nc1ccc2c(c1)C(=O)c1ccccc1-2	> 100 µM	> 100 µM			> 100 µM	
C/C=C1/C=CC2c3[nH]c4ccccc4c3CCN2C1 (configuration not stated)	> 400 µM	> 400 µM	279 µM	> 400 µM		> 400 µM
CCOC(OCC)(OCC)C(Br)CC (configuration not stated)	> 100 µM	> 100 µM	> 100 µM	> 100 µM	> 100 µM	> 100 µM
